Assay [1] relates to Bacillus subtilis. The assay can be described thus: Antibacterial activity against Bacillus subtilis after 48 hrs. The assay is classed as functional.
Assay [2] deals with Bacillus subtilis. The assay can be described thus: Bactericidal activity against Bacillus subtilis up to 500 ug/ml after 48 hrs. The assay is classed as functional, organism-based.
Assay [3] relates to Escherichia coli. The assay can be described thus: Bacteriostatic activity against Escherichia coli up to 500 ug/ml after 48 hrs. The format is functional, organism-based.
In assay [4] the test system is Bacillus subtilis. The assay can be described thus: Bacteriostatic activity against Bacillus subtilis up to 500 ug/ml after 48 hrs. The assay is classed as functional, organism-based.
The test system of assay [5] is Escherichia coli. The assay can be described thus: Bactericidal activity against Escherichia coli up to 500 ug/ml after 48 hrs. The format is functional, organism-based.

Calls of active or inactive are those of the source. Bounds are passed on as bounds.

By MIC is commonly meant the smallest concentration in the dilution series that meets the test's criterion for growth inhibition. A lower MIC goes with greater potency. Compound `CC1(C)S[C@@H]2[C@H](NC(=O)[C@H](N)c3ccccc3)C(=O)N2[C@H]1C(=O)O` [AMPICILLIN] returned a minimum inhibitory concentration (MIC) in the assay with Bacillus subtilis [1] of less than 10 µg/mL.

In the case of `CCCCCCCCOC(=O)c1ccncc1`, the outcome in the assay on Bacillus subtilis [2], with Escherichia coli [3], in the assay with Bacillus subtilis [4] and in the assay on Escherichia coli [5] was inactive.

With `CCCCC[C@@H](C)COC(=O)c1ccncc1`, the outcome in the assay with Bacillus subtilis [2], in the assay with Escherichia coli [3], in the assay on Bacillus subtilis [4] and in the assay with Escherichia coli [5] was inactive.

(Values after ChEMBL document CHEMBL3632574, “Synthesis and evaluation of antibacterial activity of (R)-2-methylheptyl isonicotinate, a putative naturally occurring bioactive agent” (2015).)
